Source: patent US10533034B2, “Human iNKT cell activation using glycolipids” (ACADEMIA SINICA, priority 2014, dated 2020)

Legend:
[1] = test system: iNKT TCR of DN3A4-1.2 Vα14+ iNKT hybridoma cells; test: Binding avidity of mCD1d-loaded glycolipids to Vα14+ iNKT cells (ternary interaction); set-up: species or system mouse; conditions: complexed with mCD1d; Scatchard transformation; flow cytometry; read-out: KD of ternary complex, mCD1d-glycolipid toward iNKT TCR
Experimental: (3A) DN3A4-1.2 Vα14+ iNKT hybridoma cells and (3B) 7DW8-5-expanded Vα24^+ iNKT cells were incubated with various concentrations of the indicated dimeric mCD d-glycolipid and hCD1d-glycolipid complexes for 30 min at 4° C., respectively. The level of bound complexes at the indicated concentration was detected by anti-mIgG1 secondary antibody and analyzed by flow cytometry. The relationship between the binding percentage and the concentration of CD1ddi-glycolipids complex was plotted in mice (3A) and humans (3B). KD values in mice (3C) and humans (3D) were calculated from Scatchard transformation of the plot (3A) and 3B), respectively. Assay was performed in duplicates.
Briefly, murine CD1d:Ig dimer (BD Biosciences PharMingen, San Diego, Calif.) was loaded with glycolipids at a molar ratio of 1:10 or vehicle for overnight at 37° C. Murine 1.2 Vα14+ iNKT cells were incubated with various doses of dimer-glycolipid complex in buffer containing azide (0.05%) for 30 min at 4° C. These cells were then stained with anti-mouse IgG1-PE mAb (A85-1) for another 30 min at 4° C., followed by washing, fixation with 4% paraformaldehyde (PFA), and the bound mCD1d dimer complexes were detected by flow cytometry. The binding curve and linear fit of the Scatchard transformation were plotted by Graphpad Prism software.
(§1) Next, we measured the ternary interaction between CD1d-glcolipid complex and the iNKT TCR in mice and humans. Different concentrations of mCD1d^di-glycolipid and hCD1d^di-glycolipid complexes were incubated with fixed amounts of DN3A4-1.2 murine iNKT hybridoma cells and human Vα24+/Vβ11^+ iNKT cells, respectively. The level of bound complexes at the indicated concentration was detected by anti-mIgG1 secondary antibody and analyzed by flow cytometry (FIGS. 3A and 3B). The KD of the ternary complex was calculated from the Scatchard transformation of the plots in FIGS. 3A and 3B using GraphPad Prism software. […] This was consistent with the observation that higher percentages of C1-pulsed splenocytes were stained by the mCD1d-7DW8-5 complex (36.2±5.0%) than mCD1d-7DW8-5-Glc complex (17.1±0.8%) (FIG. 11).

Vα24+/Vβ11+ iNKT TCR = Vα24+/Vβ11+ iNKT TCR (Homo sapiens, UniProt A0A075B6N4+A0A0B4J240+P15813); test: Binding avidity of hCD1d-loaded glycolipids with Vα24+ iNKT cells (ternary interaction); conditions: in complex with hCD1d; Scatchard transformation; read-out: KD of ternary complex, hCD1d-glycolipid toward Vα24+/Vβ11+ iNKT TCR
Vα24+/Vβ11+ iNKT TCR, sequence (P01848 whole entry): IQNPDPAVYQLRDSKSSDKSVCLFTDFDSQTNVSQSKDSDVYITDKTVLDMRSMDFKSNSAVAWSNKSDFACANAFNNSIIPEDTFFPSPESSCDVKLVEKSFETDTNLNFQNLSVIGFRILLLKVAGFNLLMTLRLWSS
Vα24+/Vβ11+ iNKT TCR, sequence (A0A075B6N4 22-114): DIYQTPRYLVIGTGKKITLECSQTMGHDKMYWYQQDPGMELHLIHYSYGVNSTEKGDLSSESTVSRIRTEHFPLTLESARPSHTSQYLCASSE
Vα24+/Vβ11+ iNKT TCR, sequence (P61769 21-119, further chain): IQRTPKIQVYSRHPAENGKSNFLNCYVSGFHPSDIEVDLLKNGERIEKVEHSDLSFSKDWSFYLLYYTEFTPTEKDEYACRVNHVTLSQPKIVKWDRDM
Vα24+/Vβ11+ iNKT TCR, sequence (A0A0B4J240 22-114): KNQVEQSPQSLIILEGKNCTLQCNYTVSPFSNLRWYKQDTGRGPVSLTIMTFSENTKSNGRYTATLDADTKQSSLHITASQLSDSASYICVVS
Vα24+/Vβ11+ iNKT TCR, sequence (P15813 20-301): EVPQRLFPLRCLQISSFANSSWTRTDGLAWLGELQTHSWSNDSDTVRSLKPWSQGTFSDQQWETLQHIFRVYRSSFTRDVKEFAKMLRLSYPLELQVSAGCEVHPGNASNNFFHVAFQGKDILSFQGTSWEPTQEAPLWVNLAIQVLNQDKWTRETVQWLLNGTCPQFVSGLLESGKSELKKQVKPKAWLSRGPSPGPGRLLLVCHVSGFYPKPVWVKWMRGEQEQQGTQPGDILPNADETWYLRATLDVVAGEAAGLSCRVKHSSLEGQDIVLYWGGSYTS
Experimental: as §1, with “(3A) DN3A4-1.2 Vα14+ iNKT hybridoma cells and (3B) 7DW8-5-expanded Vα24^+ iNKT cells were incubated with various concentrations of the indicated dimeric mCD d-glycolipid and hCD1d-glycolipid complexes for 30 min at 4° C., respectively. The level of bound complexes at the indicated concentration was detected by anti-mIgG1 secondary antibody and analyzed by flow cytometry. The relationship between the binding percentage and the concentration of CD1ddi-glycolipids complex was plotted in mice (3A) and humans (3B). KD values in mice (3C) and humans (3D) were calculated from Scatchard transformation of the plot (3A) and 3B), respectively. Assay was performed in duplicates. Binding avidity of human CD1d-glycolipid complexes to Vα24^+ iNKT cells expanded by 7DW8-5 at 100 ng/ml was determined as described previously.^19 Next,” for “Next,”

[2] = test system: human Vα24-restricted NKT cells; test: Cytokine production of human iNKT cells co-cultured with autologous DCs and glycolipids (Luminex); format: cell-based; conditions: 1 μg/mL; 72 hrs
Experimental: Human Vα24-restricted NKT cells were isolated from PBMC by magnetic beads, and iNKT cells were cultured with 50 μ/mL recombinant human IL-2. Two days later, iNKT cells were co-cultured with autologous monocyte-derived DCs and different glycolipids at 1 μg/mL in 96 wells. At 72 hrs, the supernatant were collected to determine the cytokines profiles by Luminex. (A) Secretion of IFN-γ and IL-4 was similar among all glycolipids. […] One-way ANOVA was used for statistic analysis. ***P<0.001 compared with C1. #, P<0.05 compared to C34.
To compare the capacities of C1, C34, K691, K705 and K706 in activating human iNKT cells, human Vα24-restricted NKT cells were isolated from PBMC by magnetic beads, and incubated with recombinant human IL-2 ([…]). Two days later, iNKT cells were co-cultured with autologous monocyte-derived DCs loaded with different glycolipids (1 μg/mL), including C1, C34, K691, K705 and K706, in 96 wells for three days. The supernatants were collected to determine cytokines/chemokines by Luminex assay. […] (Statistical evaluation was performed using one-way ANOVA. *P<0.05 compared with C1. #, P=0.002 compared with C34, using Student's T test).

B6 wild type mice = test: Murine serum cytokine/chemokine secretion after i.v. glycolipid, wild type mice; format: in vivo, mouse; conditions: 1 μg/mouse i.v.; 2 and 18 hr
Experimental: B6 wild type mice were i.v. injected with 7DW8-5-Glc at 0.1 or 1 μg/mouse. Sera collected at 2 h and 18 h post-injection were analyzed for chemokine secretions such as IP-10 (6A), KC (6B), MCP-1 (6C), and MIP-1α (6D). These chemokines peaked at 2 hr post-injection.
B6 wild type and Jα18 knockout mice were i.v. injected with the indicated glycolipids (1 μg/mouse) or vehicle. Sera collected at 2 h and 18 h post-injection were analyzed for cytokines like IL-2 (7A), IL-6 (7B), GM-CSF (7C) and TNFα (7D) as well as chemokines such as IP-10 (7E), MIG (7F), KC (7G) and MCP-1 (7H). Only MIG peaked at 18 hr post-injection, while the others peaked at 2 hr post-injection.
All the glycolipids were dissolved in 100% DMSO at a concentration of 1-2 mg/ml. For in vivo experiments, all compounds were diluted to 10 μg/ml in saline just before injection of 100 μl diluted glycolipid or 100 μl 1% DMSO into mice. Pathogen-free C57BL/6 female mice aged 6-12 weeks were obtained from the National Laboratory Animal Center (Taipei, Taiwan). Jα18 knockout (KO) B6 mice were the gifts from Dr. Masaru Taniguchi (RIKEN Research Center for Allergy and Immunology, Yokohama, Japan). All the mice were maintained in pathogen free vivarium of Institute of Cellular and Organismic Biology, Academia Sinica (Taipei, Taiwan).
B6 WT or Jα18 KO mice were intravenously injected with vehicle or glycolipids at 0.1 or 1 μg/mouse. Serum was collected at 2 and 18 h after injection for measurement of cytokines/chemokines by Beadlyte® Mouse Cytokine kit (Millipore, N.Y.) and read by a Luminex® 200™ system (Luminex, Austin, Tex.).
Previously, 0.1 μg/mouse of 7DW8-5 was sufficient for immune stimulation,^19 but higher dosage (1 μg/mouse) was required for the glucose analog 7DW8-5-Glc to induce immune responses (FIG. 6). Thus, the biological activities of newly synthesized glycolipids were tested in B6 mice 2 and 18 hr after i.v. injection of glycolipids at 1 μg/mouse. […] As compared to GSLs with αGlc, GSLs with αGal induced higher levels of cytokines and chemokines, including IFN-γ, IL-2, IL-4, IL-6, GM-CSF, TNFα and IP-10.

B6 WT mice splenocytes = test: FACS analyses of WT mouse immune cells after glycolipid stimulation; format: in vivo; conditions: 1 μg/mouse; 72 hr
Experimental: B6 WT mice treated with the indicated glycolipid (1 μg/mouse) or vehicle (1% DMSO in PBS) were sacrificed at 72 hr post-injection and their splenocytes were subjected to FACS analysis. (8A) The total splenocytes, (8B) total CD11Chi cells, (8C) CD11Chi/CD80+ cells, (8D) CD11Chi/CD86+ cells, (8E) CD4^+ T cells and (8F) CD8^+ T cells.
B6 WT or Jα18 KO mice treated with specific glycolipid (1 μg/mouse) or vehicle (1% DMSO in PBS) were sacrificed at 72 hr post-injection and their spleens were harvested. After pressing spleens through 70 um strainer and lysis of erythrocytes, the nucleated cells were resuspended in PBS buffer containing azide (0.05%) and stained with antibodies recognizing the indicated cell surface antigens for 30 min at 4° C. After washing, the splenocytes were subjected to FACS analysis. The antibodies against CD3, CD4, CD8α, CD11c, CD80, and CD86 were obtained from BD Bioscience-Pharmingen.
Next, we analyzed the expansion/activation of immune cells in WT mice 3 days after glycolipid stimulation. The numbers of total T cells, CD4^+ T and CD8^+ T cells were higher in mice treated by GSLs with αGal head than those treated by GSLs with αGlc (FIGS. 2C, 8E and 8F). This was in line with the observation that more cytokines/chemokines were induced by GSLs with αGal than GSLs with αGlc in mice (FIGS. 2A, 2B and 7). […] As compared to 7DW8-5-Glc, C1-Glc not only expanded ˜1.3 fold more splenocytes and DCs (FIGS. 8A and 8B) but also activated ˜3.5 fold more CD80^+ DCs as well as ˜3 fold more CD86^+ DCs (FIGS. 8C and 8D). The increased expansion/activation of DCs may contribute to the stronger immunogenicity triggered by C1-Glc and C34-Glc as compared to 7DW8-5-Glc in vivo.

| SMILES | Kd [1] | Kd (Vα24+/Vβ11+ iNKT TCR) | Ratio of IFN-γ/IL-4 compared with C1 [2] | induction of serum cytokines/chemokines (B6 wild type mice) | CD80+ DCs activated, fold more than 7DW8-5-Glc (B6 WT mice splenocytes) | CD86+ DCs activated, fold more than 7DW8-5-Glc (B6 WT mice splenocytes) | DCs expanded, fold more than 7DW8-5-Glc (B6 WT mice splenocytes) | splenocytes expanded, fold more than 7DW8-5-Glc (B6 WT mice splenocytes) |
| --- | --- | --- | --- | --- | --- | --- | --- | --- |
| CCCCCCCCCCCCCCC(O)C(O)C(COC1OC(CO)C(O)C(O)C1O)NC(=O)CCCCCCCCCCc1ccc(Oc2ccc(F)cc2)cc1 (centres unmarked) [Compound C34] | 0.735 ± 0.01 nM | 0.498 ± 0.005 nM | significantly higher |  |  |  |  |  |
| CCCCCCCCCCCCCCCCCCCCCCCCCC(=O)N[C@@H](CO[C@H]1O[C@H](CO)[C@H](O)[C@H](O)[C@H]1O)[C@H](O)[C@H](O)CCCCCCCCCCCCCC [Compound C1, α-Galactosyl ceramide, reference compound] | 1.24 ± 0.003 nM | 16.4 ± 4.2 nM |  |  |  |  |  |  |
| CC[C@@H](O)[C@@H](O)[C@H](CO[C@H]1OC(CO)[C@@H](O)C(O)C1O)NC(=O)Cc1ccc(Oc2ccc(F)cc2)cc1 (some centres unmarked) [Compound C34-Glc] | 7.96 ± 1.27 nM | 0.378 ± 0.019 nM |  | triggered both cytokines and chemokines | ~2 fold | ~2 fold |  |  |
| CCC(=O)N[C@@H](CO[C@H]1OC(CO)[C@@H](O)C(O)C1O)[C@H](O)[C@H](O)CC (some centres unmarked) [Compound C1-Glc] | 5.14 ± 0.11 nM | 8.55 ± 0.617 nM |  | triggered both cytokines and chemokines | ~3.5 fold | ~3 fold | ~1.3 fold | ~1.3 fold |
